14 compounds from patent US20200216416A1, “QUINOLINE COMPOUNDS AS INHIBITORS OF TAM AND MET KINASES” (Array BioPharma Inc., priority 2019, published 2020) can be followed below.

The target of one data set is T1, human MET kinase L1195V (Homo sapiens, UniProt P08581, L1195V).
T1 construct: GST-tagged recombinant human MET kinase domain; purchased Signal Chem
In words: c-Met Enzyme Assay, L1195V mutant. Format: binding. The settings on record: averaged IC50; L1195V 10 nM; 60-minute incubation at 22° C. In outline:
(§1)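 LanthaScreen Eu TR-FRET binding: GST-tagged recombinant MET kinase domain incubated with compound, 50 nM Alexa-Fluor Tracer 236 and 2 nM Eu-anti-GST in 25 mM HEPES pH 7.4, 10 mM MgCl2, 1 mM DTT, 2% DMSO, 60 min at 22 °C. Ratiometric emission gave percent of control; IC50 from 4-parameter fit at 50 POC.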

A further data set addresses T2, MDR1 (P-gp) (Homo sapiens, UniProt P08183).
T2 construct: expressed in transfected cells; host or cells: LLC-PK1
In words: MDR1 LLC-PK1 permeability assay. Type of data set: in vitro ADME. As to conditions: pig, MDR1 transfected LLC-PK1 cells; for Papp at 2 h, 1 μM: permeability coefficient (Papp). In outline:
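MDR1-transfected LLC-PK1 monolayers dosed at 1 μM test article (1% organic) in A→B and B→A directions, in triplicate, for 2 h at 37 °C; lucifer yellow monitored monolayer integrity. Compound measured by LC-MS/MS against labetalol internal standard; Papp averaged per replicate, efflux ratio = Papp(B−A)/Papp(A−B).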

Another data set deals with T3, human MET kinase Y1230C (Homo sapiens, UniProt P08581, Y1230C).
T3 construct: GST-tagged recombinant human MET kinase domain; purchased Signal Chem
In words: c-Met Enzyme Assay, Y1230C mutant. Format: binding. The settings on record: averaged IC50; Y1230C 2 nM; 60-minute incubation at 22° C.; read-out: Y1230 C IC50. The gist of the method: as §1

Setting [1] is: LLC-PK1, efflux ratio = Papp(B-A)/Papp(A-B), read-out: MDR1 Pe Ratio.
The mark [2] stands for this setting: LLC-PK1, Papp(B−A)/Papp(A−B), test article 1 μM, 2 hours, 37° C., read-out: Efflux ratio.

As a reminder, the IC50 is the concentration that gives 50% inhibition. For orientation: Papp means the rate of passage across a membrane or cell layer, normalised by area and donor concentration.

Read-outs that look alike come from different tables or passages of the source.

T1 sequence (P08581 1078-1345 L1195V limits assumed): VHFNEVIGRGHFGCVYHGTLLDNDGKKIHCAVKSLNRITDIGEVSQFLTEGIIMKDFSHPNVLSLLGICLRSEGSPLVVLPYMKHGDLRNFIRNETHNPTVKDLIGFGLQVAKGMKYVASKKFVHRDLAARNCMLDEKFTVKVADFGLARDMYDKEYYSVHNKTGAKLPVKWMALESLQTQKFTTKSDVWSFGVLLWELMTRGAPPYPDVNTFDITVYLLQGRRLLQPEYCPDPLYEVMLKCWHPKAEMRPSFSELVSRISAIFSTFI
T3 sequence (P08581 1078-1345 Y1230C): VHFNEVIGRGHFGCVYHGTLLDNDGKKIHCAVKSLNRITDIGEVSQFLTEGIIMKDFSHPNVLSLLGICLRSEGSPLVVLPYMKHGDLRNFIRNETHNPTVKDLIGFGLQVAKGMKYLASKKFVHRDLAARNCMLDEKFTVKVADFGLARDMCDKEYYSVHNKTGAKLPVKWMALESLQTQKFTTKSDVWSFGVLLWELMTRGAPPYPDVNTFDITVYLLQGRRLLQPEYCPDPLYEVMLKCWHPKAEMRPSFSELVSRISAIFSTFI
T2 sequence (P08183 whole entry): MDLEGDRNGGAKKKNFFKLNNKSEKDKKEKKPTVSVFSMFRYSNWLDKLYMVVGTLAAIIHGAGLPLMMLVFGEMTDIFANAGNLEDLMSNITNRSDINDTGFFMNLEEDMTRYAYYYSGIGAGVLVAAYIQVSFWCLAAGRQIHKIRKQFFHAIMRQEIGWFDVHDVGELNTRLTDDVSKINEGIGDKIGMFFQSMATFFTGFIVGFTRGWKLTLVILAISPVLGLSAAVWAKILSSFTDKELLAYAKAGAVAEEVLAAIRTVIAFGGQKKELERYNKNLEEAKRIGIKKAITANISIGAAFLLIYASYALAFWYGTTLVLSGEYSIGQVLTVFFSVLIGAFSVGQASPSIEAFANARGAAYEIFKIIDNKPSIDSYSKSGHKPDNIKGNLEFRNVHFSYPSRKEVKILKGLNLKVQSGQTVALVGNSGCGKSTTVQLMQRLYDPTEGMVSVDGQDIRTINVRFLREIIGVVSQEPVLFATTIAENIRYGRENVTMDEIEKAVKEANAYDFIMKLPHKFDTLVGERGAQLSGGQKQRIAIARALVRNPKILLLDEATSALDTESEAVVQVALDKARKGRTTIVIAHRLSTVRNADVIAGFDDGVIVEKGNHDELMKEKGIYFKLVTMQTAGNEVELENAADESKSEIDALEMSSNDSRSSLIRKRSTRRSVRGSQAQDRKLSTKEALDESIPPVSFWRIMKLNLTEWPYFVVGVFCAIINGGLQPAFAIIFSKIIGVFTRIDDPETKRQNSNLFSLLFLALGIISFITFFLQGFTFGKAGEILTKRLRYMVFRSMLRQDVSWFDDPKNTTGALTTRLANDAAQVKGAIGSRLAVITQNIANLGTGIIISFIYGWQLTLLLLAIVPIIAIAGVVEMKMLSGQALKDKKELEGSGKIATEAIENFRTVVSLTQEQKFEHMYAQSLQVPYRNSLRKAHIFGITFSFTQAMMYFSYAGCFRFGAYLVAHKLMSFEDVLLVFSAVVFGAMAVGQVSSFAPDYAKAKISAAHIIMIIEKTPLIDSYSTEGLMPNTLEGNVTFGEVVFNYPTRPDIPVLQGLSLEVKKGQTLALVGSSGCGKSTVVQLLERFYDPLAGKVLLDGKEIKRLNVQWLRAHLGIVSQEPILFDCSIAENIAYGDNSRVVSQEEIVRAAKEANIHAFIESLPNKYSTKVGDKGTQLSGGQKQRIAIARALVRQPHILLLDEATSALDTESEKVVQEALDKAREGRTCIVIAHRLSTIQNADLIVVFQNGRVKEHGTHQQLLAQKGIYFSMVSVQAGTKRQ

Turning to `COc1cc2nccc(Oc3ccc(NC(=O)c4cn(CCN(C)C)cc(-c5ccc(F)c(F)c5)c4=O)nc3)c2cc1OC` [Example 43, 5-(3,4-difluorophenyl)-N-(5-((6,7-dimethoxyquinolin-4-yl)oxy)pyridin-2-yl)-1-], the 50% inhibitory concentration (IC50) at human MET kinase L1195V came out at 14.2 nM; on human MET kinase Y1230C, 1.4 nM. Moreover, the efflux ratio at 2 h, 1 μM on MDR1 (P-gp) (setting [1]) was determined as 13.

Regarding `COc1cc2nccc(Oc3ccc(NC(=O)c4cn(CCN(C)C)cc(-c5ccc(F)cc5F)c4=O)nc3)c2cc1OC` [Example 44, 5-(2,4-difluorophenyl)-N-(5-((6,7-dimethoxyquinolin-4-yl)oxy)pyridin-2-yl)-1-(2-(dimethylamino)ethyl)-4-oxo-1,4-dihydropyridine-3-carboxamide], the half-maximal inhibitory concentration (IC50) on human MET kinase L1195V was found to be 18.9 nM; on human MET kinase Y1230C, 1.7 nM. Besides, on MDR1 (P-gp) (setting [1]), the efflux ratio at 2 h, 1 μM amounted to 11. In addition, the apparent permeability coefficient (Papp) at 2 h, 1 μM on MDR1 (P-gp) came out at 2 ×10⁻⁶ cm/s.

In the case of `COc1cc2nccc(Oc3ccc(NC(=O)c4cn(C)c(C(C)C)c(-c5ccc(F)cc5)c4=O)nc3)c2cc1OC` [Example 45, N-(5-((6,7-dimethoxyquinolin-4-yl)oxy)pyridin-2-yl)-5-(4-fluorophenyl)-6-isopropyl-1-methyl-4-oxo-1,4-dihydropyridine-3-carboxamide], the IC50 worked out at 41.4 nM against human MET kinase L1195V and 4.4 nM on human MET kinase Y1230C. Moreover, on MDR1 (P-gp) (setting [1]), the efflux ratio at 2 h, 1 μM was determined as 16. The compound also had a Papp at 2 h, 1 μM at MDR1 (P-gp) of 5 ×10⁻⁶ cm/s.

For the compound `COc1cc2nccc(Oc3ccc(NC(=O)c4cn(CCN(C)C)cc(-c5ccc(F)cc5)c4=O)nc3)c2cc1OC` [Example 46], the IC50 at human MET kinase L1195V came out at 21.9 nM; on human MET kinase Y1230C, 1.7 nM. Also, the efflux ratio at 2 h, 1 μM on MDR1 (P-gp) (setting [1]) stood at 13. On MDR1 (P-gp), this compound yielded an apparent permeability coefficient (Papp) at 2 h, 1 μM of 2 ×10⁻⁶ cm/s.

Regarding `COc1ccc2nccc(Oc3ccc(NC(=O)c4cn(CCN(C)C)cc(-c5ccc(F)cc5)c4=O)nc3)c2c1` [Example 47], the IC50 at human MET kinase L1195V turned out to be 414 nM; at human MET kinase Y1230C, 8.8 nM. On MDR1 (P-gp) (setting [1]), the efflux ratio at 2 h, 1 μM turned out to be 9.3.

On to `COc1cc2c(Oc3ccc(NC(=O)c4cn(C(C)C)c(C)c(-c5ccc(F)cc5)c4=O)nc3)ccnc2cc1F` [Example 48, N-(5-((7-fluoro-6-methoxyquinolin-4yl)oxy)pyridin-2-yl)-5-(4-fluorophenyl)-1-isopropyl-6-methyl-4-oxo-1,4-dihydropyridine-3-carboxamide], for which the IC50 was determined as 31.7 nM on human MET kinase L1195V and 9.4 nM on human MET kinase Y1230C. In addition, the efflux ratio at 2 h, 1 μM at MDR1 (P-gp) (setting [2]) came out at 3.5; on MDR1 (P-gp) (setting [1]), 1.6. In addition, the Papp at 2 h, 1 μM on MDR1 (P-gp) was 15 ×10⁻⁶ cm/s.

On to `COc1cc2c(Oc3ccc(NC(=O)c4cn(C(C)C)cc(-c5ccc(F)cc5)c4=O)nc3)ccnc2cc1F` [Example 49, N-(5-((7-fluoro-6-methoxyquinolin-4yl)oxy)pyridin-2-yl)-5-(4-fluorophenyl)-1-isopropyl-4-oxo-1,4-dihydropyridine-3-carboxamide], for which the half-maximal inhibitory concentration (IC50) at human MET kinase L1195V was 459 nM; on human MET kinase Y1230C it was 39 nM. In addition, the efflux ratio at 2 h, 1 μM at MDR1 (P-gp) (setting [2]) came to 3.5; on MDR1 (P-gp) (setting [1]), 0.99. The compound also had a Papp at 2 h, 1 μM at MDR1 (P-gp) of 4 ×10⁻⁶ cm/s.

For `CC(C)n1cc(C(=O)Nc2ccc(Oc3ccnc4cc(OC(F)(F)F)ccc34)cn2)c(=O)c(-c2ccc(F)cc2)c1` [Example 50, 5-(4-fluorophenyl)-1-isopropyl-4-oxo-N-(5-((7-(trifluoromethoxy)quinolin-4-yl)oxy)pyridin-2-yl)-1,4-dihydropyridine-3-carboxamide], the figures for the IC50 against human MET kinase L1195V and on human MET kinase Y1230C were 1030 nM and 199 nM, respectively. Moreover, the efflux ratio at 2 h, 1 μM at MDR1 (P-gp) (setting [1]) was 4.7. The apparent permeability coefficient (Papp) at 2 h, 1 μM at MDR1 (P-gp) was < 1 ×10⁻⁶ cm/s.

Consider `CCOc1ccc2nccc(Oc3ccc(NC(=O)c4cn(C(C)C)cc(-c5ccc(F)cc5)c4=O)nc3)c2c1` [Example 51, N-(5-((6-ethoxyquinolin-4-yl)oxy)pyridin-2-yl)-5-(4-fluorophenyl)-1-isopropyl-4-oxo-1,4-dihydropyridine-3-carboxamide], for which the IC50 was determined as 495 nM against human MET kinase L1195V and 61.8 nM at human MET kinase Y1230C. The values for the efflux ratio at 2 h, 1 μM on MDR1 (P-gp) (setting [2]) and on MDR1 (P-gp) (setting [1]) were 3.5 and 2, respectively. Besides, on MDR1 (P-gp), the Papp at 2 h, 1 μM was 3 ×10⁻⁶ cm/s.

Regarding `CCOc1ccc2c(Oc3ccc(NC(=O)c4cn(C(C)C)cc(-c5ccc(F)cc5)c4=O)nc3)ccnc2c1` [Example 52, N-(5-((7-ethoxyquinolin-4-yl)oxy)pyridin-2-yl)-5-(4-fluorophenyl)-1-isopropyl-4-oxo-1,4-dihydropyridine-3-carboxamide], the concentration for half-maximal inhibition (IC50) was determined as 73.6 nM at human MET kinase L1195V and 13.1 nM on human MET kinase Y1230C. Further, the values for the efflux ratio at 2 h, 1 μM on MDR1 (P-gp) (setting [2]) and at MDR1 (P-gp) (setting [1]) were 3.5 and 1.8, respectively. This compound also displayed a Papp at 2 h, 1 μM at MDR1 (P-gp) of 2 ×10⁻⁶ cm/s.

Take `COc1cc2nccc(Oc3cnc(NC(=O)c4cn(C(C)C)cc(-c5ccc(F)cc5)c4=O)nc3)c2cc1OC` [Example 54, N-(5-((6,7-dimethoxyquinolin-4-yl)oxy)pyrimidin-2-yl)-5-(4-fluorophenyl)-1-isopropyl-4-oxo-1,4-dihydropyridine-3-carboxamide]: the IC50 stood at 14.7 nM against human MET kinase L1195V and 4.3 nM at human MET kinase Y1230C. Also, at MDR1 (P-gp) (setting [1]), the efflux ratio at 2 h, 1 μM worked out at 114. On MDR1 (P-gp), this compound yielded a Papp at 2 h, 1 μM of 12 ×10⁻⁶ cm/s.

In the case of `COc1cc2nccc(Oc3cnc(NC(=O)c4cn(C(C)C)c(C)c(-c5ccc(F)cc5)c4=O)nc3)c2cc1OC` [Example 55, N-(5-((6,7-dimethoxyquinolin-4-yl)oxy)pyrimidin-2-yl)-5-(4-fluorophenyl)-1-isopropyl-6-methyl-4-oxo-1,4-dihydropyridine-3-carboxamide], the IC50 against human MET kinase L1195V is 5.1 nM; on human MET kinase Y1230C, 2.2 nM. Also, the efflux ratio at 2 h, 1 μM at MDR1 (P-gp) (setting [1]) is 144. At MDR1 (P-gp), this compound returned an apparent permeability coefficient (Papp) at 2 h, 1 μM of 8 ×10⁻⁶ cm/s.

Consider `COc1cc2c(Oc3ccc(NC(=O)c4cn(C(C)C)cc(-c5ccc(F)cc5)c4=O)nc3)ccnc2cc1OCCCN1CCOCC1` [Example 56, 5-(4-fluorophenyl)-1-isopropyl-N-(5-((6-methoxy-7-(3-morpholinopropoxy)quinolin-4-yl)oxy)pyridin-2-yl)-4-oxo-1,4-dihydropyridine-3-carboxamide], for which the figures for the concentration for half-maximal inhibition (IC50) at human MET kinase L1195V and at human MET kinase Y1230C were 5.3 nM and 3.2 nM, respectively. On MDR1 (P-gp) (setting [1]), the efflux ratio at 2 h, 1 μM came to 20. Moreover, the apparent permeability coefficient (Papp) at 2 h, 1 μM at MDR1 (P-gp) was < 1 ×10⁻⁶ cm/s.

As for `COc1cc2nccc(Oc3ccc(NC(=O)c4cn(C(C)C)cc(-c5ccc(F)cc5)c4=O)cn3)c2cc1OC` [Example 58, N-(6-((6,7-dimethoxyquinolin-4-yl)oxy)pyridin-3-yl)-5-(4-fluorophenyl)-1-isopropyl-4-oxo-1,4-dihydropyridine-3-carboxamide], the IC50 against human MET kinase L1195V was found to be 35 nM; at human MET kinase Y1230C, 2.2 nM. Besides, the efflux ratio at 2 h, 1 μM came to 3.5 on MDR1 (P-gp) (setting [2]) and 3 on MDR1 (P-gp) (setting [1]). At MDR1 (P-gp), this compound displayed a Papp at 2 h, 1 μM of 10 ×10⁻⁶ cm/s.
